# Experimental data published in patent US9163020B2, “Azaindole compounds, synthesis thereof, and methods of using the same” (Global Alliance for TB Drug Development, priority 2013, dated 2015).
# Where two headings read alike, the source gives them in different places.
# How the values were obtained:
# [1] = biological target: T1, hERG (Homo sapiens, UniProt Q12809)
# Procedure: (§1) Compounds were tested on voltage-gated ion channels using the medium-throughput electrophysiology IonWorks™ device. […] For carrying out the experiment, a boat in the “Cells” position of the IonWorks™ instrument was loaded with the cell suspension, and a 96-well PBS destination plate was placed in the “Plate 1” position. A 384-well PatchPlate™ was placed in the IonWorks™ plenum and held in position using the plenum clamp. From this point the experiment progress is automated and ultimately reports a non-cumulative concentration-effect curve for test compound.
# [2] = test system: hypoxia induced non-replicating persistent (NRP) Mtb cells; assay: Activity against hypoxia induced non-replicating persistent (NRP) Mtb (HBC, Wayne model); type: cell-based, Mycobacterium tuberculosis; conditions: hypoxic conditions, Wayne model; Table 4
# [3] = in vitro; type: in vitro ADME; conditions: pH 7.4; mouse microsomes; read-out: Mo micrsomal Clint
# Procedure: 1 μM compound was incubated with 1 mg/mL of microsomes (Pooled HLM/MLM with 20 mg/ml protein cone.) at 37° C. in 166 μL of buffer (100 mM phosphate buffer, pH-7.4) containing 2 mM NADPH solution. 20 μL of incubation mix was quenched with 4 volumes chilled acetonitrile at different time points i.e. 0, 2, 5, 10, 20 and 30 min in a fresh 96 well plate. The quench plate was centrifuged at 4000 rpm for 15 min. 30 μL of supernatant was diluted to 300 μL with 50% acetonitrile in water and substrate depletion was analyzed using LC-MS/MS.
# [4] = test system: CYP1A2, CYP2C9, CYP2C19, CYP2D6, CYP3A4
# [5] = Procedure: Viability of cryopreserved hepatocytes was determined using trypan blue and the cell conc. was adjusted to 10^6 cells per mL with buffer (KHB buffer). 1 μM compound (in Acetonitrile; 0.01% DMSO) was incubated with 500 μL of hepatocyte cells (1 million cells per mL) in a NUNC plate. […] Supernatants were analyzed using LC-MS/MS for substrate depletion.
# [6] = test system: A549 human lung carcinoma cells; type: cell-based
# Procedure: The in vitro cytotoxicity of compounds were measured against A549 human lung carcinoma cells as describedin Eakin et. al (2012). Briefly, A549 cells (ATCC) were grown in RPMI medium (GIBCO-BRL) containing 10% heat-inactivated fetal bovine serum (GIBCO-BRL) and 1 mM L-glutamine (GIBCO-BRL) at a density of 1,000 cells/well. After incubation of the cells with compound in a CO2 atmosphere at 37° C. for 72 hours, cell viability was determined following addition of […] of resazurin solution (Sigma), by measuring fluorescence (excitation at 535 nm, emission at 590 nm) using a fluorimeter.
# [7] = in vitro; type: in vitro ADME; conditions: plasma
# Procedure: Protein binding is measured using the equilibrium dialysis technique. Compound is added to 10% plasma giving a concentration of 20 μM and dialysed with isotonic buffer for 18 hours at 37° C. The plasma and buffer solutions are analysed using generic LCUVMS and the first apparent binding constant for the compound derived. The binding constant is then used to determine the % free in 100% plasma.
# [8] = in vivo; conditions: male, Wistar, rat, po, 100 mg/kg
# [9] = pH 7.4
# Procedure: Octanol-water partition coefficient (Log D) based on the shake-flask principle has been measured as follows. The aqueous solution used was 10 mM sodium phosphate buffer pH 7.4. 20 μL of 10 mM compound dissolved in DMSO was taken in glass vial plate. DMSO was removed using GeneVac. 435 μL of octanol was added using Tomtec, stirred for 5 min to dissolve. Further mixing was done by inversion for 5 h at 25° C., subsequently centrifuged for 30 min at 3000 RPM. LC/UV/APPI/MS quantitation of both aqueous and octanol layers was carried out. Log D value was determined according to the following equation.
# [10] = test system: panel of human targets and cardiac channels
# [11] = physchem; type: physicochemical; conditions: 25 °C, pH 7.4, aqueous buffer, thermodynamic from solid
# Procedure: Solubility of the compounds in 0.1M phosphate buffer, pH 7.4 was determined as described, Glyburide was used as QC standard in the assay. Briefly, compounds were diluted in ACN/water (40:60) to desired concentration, samples were dried using Genevac for 4 hrs and subsequently 800 μl of buffer was added. Compound containing plates were stirred for 24 hrs at 25° C. on Eppendorf Thermomix R at 750 rpm. Finally, compound concentration was estimated using UV and MS analysis.
# [12] = test system: Mycobacterium tuberculosis (Mtb) H37Rv; assay: Mtb minimal bactericidal concentration (MBC), plating from MIC plates; type: cell-based; conditions: Table 4, read-out: Mtb MBC
# Procedure: Aliquots from sample wells (MIC and higher) from the MIC plates were diluted 1:10 and plated on 7H10 agar plates. Plates were incubated at 37° C. for 3-4 weeks, CFU was enumerated.
# [13] = test system: Mycobacterium tuberculosis (Mtb) H37Rv ATCC 27294; assay: microbe, parasite or virus in culture; type: cell-based; conditions: Mycobacterium tuberculosis, read-out: Mtb MIC
# [14] = in vivo
# Procedure: PK of azaindoles compounds was performed in mice (healthy and infected) and rats. Mice were pretreated with 100 mg/kg ABT two hours prior to the compound administration. PK data from healthy mice was used to design the dosing regimen for the efficacy study while, information from infected mice was used for the PK-PD analysis.
# All oral administration was performed as suspensions in 0.5% HPMC, and 0.1% Tween 80. […] All blood samples were collected via sapheneous vein into Microvette CB300® (Starstedt, Germany) tubes coated with Lithium-Heparin, and plasma was prepared from the collected blood by centrifugation.
# One mg/mL stock solution of each compound was prepared in Dimethylsulfoxide (DMSO) and diluted two-fold with acetonitrile. A sixteen point calibration curve was utilized for each analyte, and the standard curves ranged from 0.001 to 40 μg/mL. Plasma/BAL samples were precipitated by adding chilled acetonitrile (1:10 v/v) containing carbamazepine as internal standard (250 ng/mL). Samples were vortexed, and centrifuged at 4000 rpm for 30 min at 10° C. The resulting supernatant was mixed with mobile phase (50% acetonitrile in water with 0.1% formic acid). […] of sample was injected on to a liquid chromatographic system (Waters-ACQUTY UPLC) coupled to triple quadrupole mass spectrometer (Waters-ACQUTY-TQD; MS/MS). Samples were acquired in positive ion mode and detected by multiple reaction monitoring (MRM). Concentrations of the analyte were determined from a standard curve obtained by plotting known concentrations of the analyte against peak area ratios (analyte/internal standard peak response).
# PK analysis of the plasma concentration-time relationships were performed with WinNonlin Phoenix Software (version 6.2; Pharsight, USA). […] The maximum concentration of drug in plasma (Cmax), time to Cmax (Tmax), elimination half-life (t1/2), and AUC from time zero to infinity (AUC0-∞) were estimated. […] Minimum of three sample points in the terminal slope were used to estimate to calculate half-life.
# [15] = type: in vitro ADME; conditions: for Human CLpred microsomes (% LBF): pH 7.4
# Procedure: 1 μM compound was incubated with 1 mg/mL of microsomes (Pooled HLM/MLM with 20 mg/ml protein cone.) at 37° C. in 166 μL of buffer (100 mM phosphate buffer, pH-7.4) containing 2 mM NADPH solution. […] The quench plate was centrifuged at 4000 rpm for 15 min. 30 μL of supernatant was diluted to 300 μL with 50% acetonitrile in water and substrate depletion was analyzed using LC-MS/MS.
# [16] = biological target: T1, hERG; assay: hERG assay, IonWorks electrophysiology
# Procedure: as §1
# [17] = Wistar, rat, in vivo, po, 30 mg/kg
# [18] = Wistar, rat, in vivo, iv, 2 mg/kg
# [19] = Wistar, rat, in vivo, po, 20 mg/kg
# T1 sequence (Q12809 whole entry): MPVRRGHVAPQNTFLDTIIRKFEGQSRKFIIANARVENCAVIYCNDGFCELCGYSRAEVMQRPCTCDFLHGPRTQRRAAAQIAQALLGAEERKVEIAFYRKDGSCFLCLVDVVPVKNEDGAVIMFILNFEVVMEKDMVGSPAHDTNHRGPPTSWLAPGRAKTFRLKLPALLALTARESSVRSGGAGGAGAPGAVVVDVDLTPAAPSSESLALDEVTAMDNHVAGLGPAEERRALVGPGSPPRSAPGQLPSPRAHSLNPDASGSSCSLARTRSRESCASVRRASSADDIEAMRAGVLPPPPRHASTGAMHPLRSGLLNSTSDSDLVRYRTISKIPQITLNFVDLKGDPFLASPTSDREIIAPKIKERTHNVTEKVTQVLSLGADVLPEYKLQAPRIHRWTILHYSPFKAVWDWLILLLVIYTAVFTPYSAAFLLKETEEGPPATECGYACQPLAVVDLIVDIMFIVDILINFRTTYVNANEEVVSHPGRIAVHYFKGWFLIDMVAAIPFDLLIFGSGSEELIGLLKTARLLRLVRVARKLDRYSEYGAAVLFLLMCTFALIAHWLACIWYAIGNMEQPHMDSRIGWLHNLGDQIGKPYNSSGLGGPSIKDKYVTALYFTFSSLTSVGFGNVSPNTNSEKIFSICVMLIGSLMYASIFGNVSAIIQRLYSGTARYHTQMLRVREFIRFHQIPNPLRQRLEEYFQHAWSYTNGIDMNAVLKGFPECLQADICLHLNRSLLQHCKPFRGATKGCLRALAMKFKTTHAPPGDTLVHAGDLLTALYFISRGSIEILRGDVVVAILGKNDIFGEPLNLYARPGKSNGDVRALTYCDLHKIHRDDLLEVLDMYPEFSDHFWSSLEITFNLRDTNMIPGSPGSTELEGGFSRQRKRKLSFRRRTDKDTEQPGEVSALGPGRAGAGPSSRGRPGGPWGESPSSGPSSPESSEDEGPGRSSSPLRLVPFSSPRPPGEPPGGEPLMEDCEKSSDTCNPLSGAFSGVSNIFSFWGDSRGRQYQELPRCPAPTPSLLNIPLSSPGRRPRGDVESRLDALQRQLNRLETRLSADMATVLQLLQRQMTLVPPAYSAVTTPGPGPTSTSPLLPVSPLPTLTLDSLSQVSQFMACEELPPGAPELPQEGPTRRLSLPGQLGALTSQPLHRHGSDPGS
compound,measurement,setting,value
"COc1ncnc(Cn2cc(C(=O)NCCF)c3ncc(C)cc32)c1C [Compound 8, N-(2-fluoroethyl)-1-((6-methoxy-5-methylpyrimidin-4-yl)methyl)-6-methyl-1H-pyrrolo[3,2-b]pyridine-3-carboxamide]",hERG,[1],>33 µM
same,Mtb HBC,[2],100 µM
same,microsomal CLint,[3],108 µL/min/mg
same,CYP inhibition,[4]; human,>50 µM
same,Human CLpred hepatocytes (% LBF),[5]; 1 μM,4.3 % LBF
same,Rat CLpred hepatocytes (% LBF),[5]; 1 μM,14.9 % LBF
same,MMIC (A549),"[6]; human, 72 h",>100 µM
same,"fraction unbound at 18 h, 20 μM",[7]; human,0.05 to 0.22
same,Human PPB (% free),[7],5 % free
same,AUC(0-inf),[8],98.4 ± 31.9 µM·h
same,Cmax,[8],11.9 ± 3 µM
same,Tmax,[8],1.5 ± 0.6 h
same,half-life,[8],7.2 ± 1.3 h
same,logD,[9],2.6
same,Secondary pharmacology hits IC50,[10],No significant hits
same,in vitro safety profiling,[10],no major safety liabilities
same,solubility,[11],4 µM
same,MBC,[12],< 0.39 µM
same,MIC,[13]; Table 1,< 0.53 µM
same,MIC,[13]; Table 4,< 0.39 µM
same,AUC(0-inf),"[14]; BALB/c, mouse, po, 30 mg/kg",64.2 µM·h
same,Cmax,"[14]; BALB/c, mouse, po, 30 mg/kg",13.4 µM
same,Tmax,"[14]; BALB/c, mouse, po, 30 mg/kg",2 h
same,half-life,"[14]; BALB/c, mouse, po, 30 mg/kg",4.15 h
same,AUC(0-inf),[14]; [17],29.3 µM·h
same,Cmax,[14]; [17],3.69 µM
same,Tmax,[14]; [17],4.5 h
same,half-life,[14]; [17],3.58 h
same,Human CLpred microsomes (% LBF),[15],10.1 % LBF
"COc1ncnc(Cn2cc(C(=O)NCCO)c3ncc(C)cc32)c1C [Compound 17, N-(2-hydroxyethyl)-1-((6-methoxy-5-methylpyrimidin-4-yl)methyl)-6-methyl-1H-pyrrolo[3,2-b]pyridine-3-carboxamide]",Mtb HBC,[2],>100 µM
same,microsomal CLint,[3],25 µL/min/mg
same,CYP inhibition,"[4]; CYP1A2, CYP2C9, CYP2C19, CYP2D6, CYP3A4",>50 µM
same,Human CLpred hepatocytes (% LBF),[5],9.2 % LBF
same,Rat CLpred hepatocytes (% LBF),[5],17.9 % LBF
same,MMIC (A549),"[6]; 72 hours treatment, Table 4",>100 µM
same,AUC(0-inf),[8],986 ± 274 µM·h
same,Cmax,[8],46.1 ± 7.7 µM
same,Tmax,[8],5.3 ± 1.2 h
same,half-life,[8],3.8 ± 0.6 h
same,hERG,[16],>33 µM
same,Secondary pharmacology hits IC50,[10],No significant hits
same,in vitro safety profiling,[10],no major safety liabilities
same,MBC,[12],0.78 to 1.56 µM
same,MIC,[13]; Table 1,1.56 µM
same,MIC,[13]; Table 4,1.56 to 3.12 µM
same,AUC(0-inf),"[14]; BALB/c, mouse, po, 50 mg/kg",420 ± 23.5 µM·h
same,Cmax,"[14]; BALB/c, mouse, po, 50 mg/kg",74.8 ± 15.6 µM
same,Tmax,"[14]; BALB/c, mouse, po, 50 mg/kg",1.33 ± 0.58 h
same,half-life,"[14]; BALB/c, mouse, po, 50 mg/kg",1.78 ± 0.1 h
same,C0h,"[14]; Wistar rats, IV 2 mg/kg, n = 2",2.64 µM
same,F,"[14]; Wistar rats, oral 20 mg/kg, n = 2",100%
same,AUC(0-t),[14]; [18],3.46 µM·h
same,Vd,[14]; [18],7.34 L/kg
same,clearance,[14]; [18],27.4 mL/min/kg
same,bioavailability,"[14]; Wistar, rat, in vivo, po",92%
same,AUC(0-inf),[14]; [19],59.8 µM·h
same,Cmax,[14]; [19],17.8 µM
same,Tmax,[14]; [19],0.5 h
same,half-life,[14]; [19],2.74 h
same,predicted clearance,"[15]; human, rat",4-18 % of liver blood flow (% LBF)
same,Human CLpred microsomes (% LBF),[15],16.1 % LBF
